Reference: ChEMBL document CHEMBL5465560, “Selectivity Literature for EUbOPEN Chemogenomic Library” (2024)

Columns and labels:
[1] = molecular target: Leucine-rich repeat serine/threonine-protein kinase 2 (Homo sapiens, UniProt Q5S007); experiment: (§1) Selectivity interaction (KinomeScan (DiscoverX)) EUB0001049a LRRK2; details: at 1 µM
[2] = tested on: Leucine-rich repeat serine/threonine-protein kinase 2 (Homo sapiens), Q5S007 [G2019S]; experiment: as §1; details: at 1 µM
[3] = molecular target: T1, Ephrin type-A receptor 6 (Homo sapiens) (UniProt Q9UF33); experiment: Selectivity interaction (KinomeScan (DiscoverX)) EUB0000229b EPHA6; details: at 10 µM
T1 sequence (whole entry): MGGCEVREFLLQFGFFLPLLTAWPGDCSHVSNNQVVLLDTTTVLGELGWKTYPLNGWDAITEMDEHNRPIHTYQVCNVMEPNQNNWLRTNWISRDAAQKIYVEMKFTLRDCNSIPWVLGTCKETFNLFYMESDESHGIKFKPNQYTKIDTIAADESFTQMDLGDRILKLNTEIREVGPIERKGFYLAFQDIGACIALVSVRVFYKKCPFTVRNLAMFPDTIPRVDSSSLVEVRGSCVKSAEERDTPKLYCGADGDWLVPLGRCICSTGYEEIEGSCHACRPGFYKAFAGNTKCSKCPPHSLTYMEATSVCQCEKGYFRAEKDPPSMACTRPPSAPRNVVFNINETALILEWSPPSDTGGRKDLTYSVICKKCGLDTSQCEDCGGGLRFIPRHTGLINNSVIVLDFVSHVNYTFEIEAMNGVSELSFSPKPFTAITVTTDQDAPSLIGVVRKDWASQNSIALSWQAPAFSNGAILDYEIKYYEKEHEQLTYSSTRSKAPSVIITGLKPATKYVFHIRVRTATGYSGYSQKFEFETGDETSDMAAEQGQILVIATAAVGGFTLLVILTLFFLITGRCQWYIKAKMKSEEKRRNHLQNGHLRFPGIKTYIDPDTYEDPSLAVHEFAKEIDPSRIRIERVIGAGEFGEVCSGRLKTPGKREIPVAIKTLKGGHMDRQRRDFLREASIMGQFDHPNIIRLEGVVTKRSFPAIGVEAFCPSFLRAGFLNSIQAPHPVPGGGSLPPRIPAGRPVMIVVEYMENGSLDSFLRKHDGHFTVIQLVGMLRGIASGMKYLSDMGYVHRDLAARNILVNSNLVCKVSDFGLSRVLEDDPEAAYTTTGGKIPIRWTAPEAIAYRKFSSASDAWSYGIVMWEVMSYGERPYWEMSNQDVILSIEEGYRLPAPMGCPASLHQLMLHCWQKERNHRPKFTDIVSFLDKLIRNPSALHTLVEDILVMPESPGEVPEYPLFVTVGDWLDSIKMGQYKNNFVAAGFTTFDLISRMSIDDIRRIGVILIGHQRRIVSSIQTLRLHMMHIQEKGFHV

[4] = molecular target: T2, Serine/threonine-protein kinase ULK3 (Homo sapiens) (UniProt Q6PHR2); experiment: Selectivity interaction (KinomeScan (DiscoverX)) EUB0001079a ULK3; details: at 1 µM
T2 sequence (whole entry): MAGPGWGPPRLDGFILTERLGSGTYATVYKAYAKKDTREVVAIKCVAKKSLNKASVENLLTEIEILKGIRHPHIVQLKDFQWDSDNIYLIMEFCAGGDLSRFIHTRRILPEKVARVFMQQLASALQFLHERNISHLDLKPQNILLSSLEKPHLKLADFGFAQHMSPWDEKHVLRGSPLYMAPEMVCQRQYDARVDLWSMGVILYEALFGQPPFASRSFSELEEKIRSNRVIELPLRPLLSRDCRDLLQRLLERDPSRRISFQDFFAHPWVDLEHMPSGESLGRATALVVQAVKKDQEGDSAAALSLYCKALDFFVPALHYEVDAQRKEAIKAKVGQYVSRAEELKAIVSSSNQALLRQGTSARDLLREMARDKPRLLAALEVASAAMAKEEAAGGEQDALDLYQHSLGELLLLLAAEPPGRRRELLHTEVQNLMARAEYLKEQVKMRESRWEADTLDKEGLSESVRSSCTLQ

[5] = molecular target: BMP-2-inducible protein kinase (Homo sapiens) (UniProt Q9NSY1); experiment: Selectivity interaction (KinomeScan (DiscoverX)) EUB0000595a BMP2K; details: at 10 µM
[6] = molecular target: T3, Myosin light chain kinase family member 4 (Homo sapiens) (UniProt Q86YV6); experiment: Selectivity interaction (Ambit KINOMEscan and KiNATiv profiling in Jurkat cells) EUB0000090b MYLK4; assay type: cell-based; details: at 1 µM
T3 sequence (whole entry): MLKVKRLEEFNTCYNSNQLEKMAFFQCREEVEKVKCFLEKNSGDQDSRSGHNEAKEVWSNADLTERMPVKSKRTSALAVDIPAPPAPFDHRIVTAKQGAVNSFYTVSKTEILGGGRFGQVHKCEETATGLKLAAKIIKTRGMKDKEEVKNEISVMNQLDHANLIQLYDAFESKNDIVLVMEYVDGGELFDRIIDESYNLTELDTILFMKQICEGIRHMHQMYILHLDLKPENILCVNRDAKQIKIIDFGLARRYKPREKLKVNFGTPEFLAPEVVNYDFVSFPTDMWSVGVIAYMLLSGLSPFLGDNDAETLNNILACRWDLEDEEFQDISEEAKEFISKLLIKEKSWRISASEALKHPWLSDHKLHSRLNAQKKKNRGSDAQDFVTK

[7] = molecular target: Protein kinase C theta type (Homo sapiens, UniProt Q04759); experiment: Selectivity interaction (Kinase panel (Z-LYTE Assay)) EUB0001632a PRKCQ; details: at 10 µM
[8] = molecular target: RAC-alpha serine/threonine-protein kinase (Homo sapiens, UniProt P31749); experiment: Selectivity interaction (Rxn Biology Kinase assay) EUB0001632a AKT1; details: at 10 µM
Chain of RAC-alpha serine/threonine-protein kinase (P31749 whole entry): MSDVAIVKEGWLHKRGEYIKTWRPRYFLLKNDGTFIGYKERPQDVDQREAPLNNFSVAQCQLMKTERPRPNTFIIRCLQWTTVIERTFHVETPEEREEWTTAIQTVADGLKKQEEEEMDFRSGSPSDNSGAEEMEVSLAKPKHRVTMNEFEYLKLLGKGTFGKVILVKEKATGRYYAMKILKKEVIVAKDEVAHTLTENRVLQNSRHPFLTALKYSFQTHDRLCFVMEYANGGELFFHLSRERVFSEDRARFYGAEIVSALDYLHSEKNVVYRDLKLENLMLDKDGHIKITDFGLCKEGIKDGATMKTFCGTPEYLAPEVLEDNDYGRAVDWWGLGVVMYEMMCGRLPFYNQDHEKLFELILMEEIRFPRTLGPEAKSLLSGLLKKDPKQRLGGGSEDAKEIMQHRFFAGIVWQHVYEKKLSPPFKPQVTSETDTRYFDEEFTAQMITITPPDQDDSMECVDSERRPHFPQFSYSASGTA

Chain of Protein kinase C theta type (Q04759 whole entry, looked up): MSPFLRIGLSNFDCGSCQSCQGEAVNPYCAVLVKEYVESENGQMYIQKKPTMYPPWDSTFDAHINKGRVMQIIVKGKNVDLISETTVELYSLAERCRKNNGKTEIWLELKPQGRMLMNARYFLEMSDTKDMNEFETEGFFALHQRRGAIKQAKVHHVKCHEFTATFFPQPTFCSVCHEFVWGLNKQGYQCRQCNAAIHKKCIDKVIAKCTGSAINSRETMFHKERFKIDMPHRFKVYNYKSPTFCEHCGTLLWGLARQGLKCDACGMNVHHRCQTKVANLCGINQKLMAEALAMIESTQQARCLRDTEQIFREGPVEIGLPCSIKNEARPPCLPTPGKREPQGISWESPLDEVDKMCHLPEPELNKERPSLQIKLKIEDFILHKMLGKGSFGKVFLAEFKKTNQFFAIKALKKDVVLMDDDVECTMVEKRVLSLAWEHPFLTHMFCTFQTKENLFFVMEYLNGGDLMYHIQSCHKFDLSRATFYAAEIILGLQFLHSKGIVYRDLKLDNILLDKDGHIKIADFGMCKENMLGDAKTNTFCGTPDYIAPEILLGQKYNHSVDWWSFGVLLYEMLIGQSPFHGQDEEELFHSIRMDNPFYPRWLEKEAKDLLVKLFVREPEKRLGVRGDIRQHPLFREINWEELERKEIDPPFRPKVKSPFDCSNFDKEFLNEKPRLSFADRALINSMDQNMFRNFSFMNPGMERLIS
Chain of BMP-2-inducible protein kinase (Homo sapiens) (Q9NSY1 whole entry, looked up): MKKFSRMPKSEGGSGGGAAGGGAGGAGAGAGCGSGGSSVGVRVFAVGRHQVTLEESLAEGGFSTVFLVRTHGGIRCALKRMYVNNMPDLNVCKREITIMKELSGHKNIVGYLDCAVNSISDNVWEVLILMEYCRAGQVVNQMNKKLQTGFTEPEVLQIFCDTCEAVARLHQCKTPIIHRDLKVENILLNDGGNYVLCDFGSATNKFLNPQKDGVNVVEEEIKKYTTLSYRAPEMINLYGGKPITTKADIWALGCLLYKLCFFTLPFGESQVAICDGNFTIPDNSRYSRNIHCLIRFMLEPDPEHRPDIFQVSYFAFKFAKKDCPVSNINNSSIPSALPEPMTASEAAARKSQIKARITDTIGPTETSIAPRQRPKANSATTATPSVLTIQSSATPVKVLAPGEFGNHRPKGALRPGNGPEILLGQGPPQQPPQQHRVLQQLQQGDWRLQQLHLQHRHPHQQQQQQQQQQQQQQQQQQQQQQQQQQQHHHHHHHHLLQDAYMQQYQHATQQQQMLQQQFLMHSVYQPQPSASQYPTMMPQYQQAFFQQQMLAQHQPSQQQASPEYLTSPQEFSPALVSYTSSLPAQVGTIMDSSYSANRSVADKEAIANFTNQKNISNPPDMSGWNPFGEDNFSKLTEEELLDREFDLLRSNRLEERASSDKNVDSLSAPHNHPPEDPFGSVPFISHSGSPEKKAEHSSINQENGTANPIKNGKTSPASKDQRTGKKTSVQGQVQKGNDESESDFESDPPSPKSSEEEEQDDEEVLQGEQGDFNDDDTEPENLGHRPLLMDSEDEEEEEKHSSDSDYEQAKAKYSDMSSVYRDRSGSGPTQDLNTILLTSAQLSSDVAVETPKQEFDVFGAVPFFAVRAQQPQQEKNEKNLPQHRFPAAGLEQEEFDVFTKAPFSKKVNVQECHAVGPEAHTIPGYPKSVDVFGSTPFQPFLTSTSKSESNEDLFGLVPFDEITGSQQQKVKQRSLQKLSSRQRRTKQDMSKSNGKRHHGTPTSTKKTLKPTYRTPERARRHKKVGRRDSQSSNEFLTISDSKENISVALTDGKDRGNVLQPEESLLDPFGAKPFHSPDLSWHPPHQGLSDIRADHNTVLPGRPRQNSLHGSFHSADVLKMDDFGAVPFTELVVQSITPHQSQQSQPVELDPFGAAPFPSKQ
Chain of Leucine-rich repeat serine/threonine-protein kinase 2 (Homo sapiens), Q5S007 [G2019S] (Q5S007 whole entry G2019S): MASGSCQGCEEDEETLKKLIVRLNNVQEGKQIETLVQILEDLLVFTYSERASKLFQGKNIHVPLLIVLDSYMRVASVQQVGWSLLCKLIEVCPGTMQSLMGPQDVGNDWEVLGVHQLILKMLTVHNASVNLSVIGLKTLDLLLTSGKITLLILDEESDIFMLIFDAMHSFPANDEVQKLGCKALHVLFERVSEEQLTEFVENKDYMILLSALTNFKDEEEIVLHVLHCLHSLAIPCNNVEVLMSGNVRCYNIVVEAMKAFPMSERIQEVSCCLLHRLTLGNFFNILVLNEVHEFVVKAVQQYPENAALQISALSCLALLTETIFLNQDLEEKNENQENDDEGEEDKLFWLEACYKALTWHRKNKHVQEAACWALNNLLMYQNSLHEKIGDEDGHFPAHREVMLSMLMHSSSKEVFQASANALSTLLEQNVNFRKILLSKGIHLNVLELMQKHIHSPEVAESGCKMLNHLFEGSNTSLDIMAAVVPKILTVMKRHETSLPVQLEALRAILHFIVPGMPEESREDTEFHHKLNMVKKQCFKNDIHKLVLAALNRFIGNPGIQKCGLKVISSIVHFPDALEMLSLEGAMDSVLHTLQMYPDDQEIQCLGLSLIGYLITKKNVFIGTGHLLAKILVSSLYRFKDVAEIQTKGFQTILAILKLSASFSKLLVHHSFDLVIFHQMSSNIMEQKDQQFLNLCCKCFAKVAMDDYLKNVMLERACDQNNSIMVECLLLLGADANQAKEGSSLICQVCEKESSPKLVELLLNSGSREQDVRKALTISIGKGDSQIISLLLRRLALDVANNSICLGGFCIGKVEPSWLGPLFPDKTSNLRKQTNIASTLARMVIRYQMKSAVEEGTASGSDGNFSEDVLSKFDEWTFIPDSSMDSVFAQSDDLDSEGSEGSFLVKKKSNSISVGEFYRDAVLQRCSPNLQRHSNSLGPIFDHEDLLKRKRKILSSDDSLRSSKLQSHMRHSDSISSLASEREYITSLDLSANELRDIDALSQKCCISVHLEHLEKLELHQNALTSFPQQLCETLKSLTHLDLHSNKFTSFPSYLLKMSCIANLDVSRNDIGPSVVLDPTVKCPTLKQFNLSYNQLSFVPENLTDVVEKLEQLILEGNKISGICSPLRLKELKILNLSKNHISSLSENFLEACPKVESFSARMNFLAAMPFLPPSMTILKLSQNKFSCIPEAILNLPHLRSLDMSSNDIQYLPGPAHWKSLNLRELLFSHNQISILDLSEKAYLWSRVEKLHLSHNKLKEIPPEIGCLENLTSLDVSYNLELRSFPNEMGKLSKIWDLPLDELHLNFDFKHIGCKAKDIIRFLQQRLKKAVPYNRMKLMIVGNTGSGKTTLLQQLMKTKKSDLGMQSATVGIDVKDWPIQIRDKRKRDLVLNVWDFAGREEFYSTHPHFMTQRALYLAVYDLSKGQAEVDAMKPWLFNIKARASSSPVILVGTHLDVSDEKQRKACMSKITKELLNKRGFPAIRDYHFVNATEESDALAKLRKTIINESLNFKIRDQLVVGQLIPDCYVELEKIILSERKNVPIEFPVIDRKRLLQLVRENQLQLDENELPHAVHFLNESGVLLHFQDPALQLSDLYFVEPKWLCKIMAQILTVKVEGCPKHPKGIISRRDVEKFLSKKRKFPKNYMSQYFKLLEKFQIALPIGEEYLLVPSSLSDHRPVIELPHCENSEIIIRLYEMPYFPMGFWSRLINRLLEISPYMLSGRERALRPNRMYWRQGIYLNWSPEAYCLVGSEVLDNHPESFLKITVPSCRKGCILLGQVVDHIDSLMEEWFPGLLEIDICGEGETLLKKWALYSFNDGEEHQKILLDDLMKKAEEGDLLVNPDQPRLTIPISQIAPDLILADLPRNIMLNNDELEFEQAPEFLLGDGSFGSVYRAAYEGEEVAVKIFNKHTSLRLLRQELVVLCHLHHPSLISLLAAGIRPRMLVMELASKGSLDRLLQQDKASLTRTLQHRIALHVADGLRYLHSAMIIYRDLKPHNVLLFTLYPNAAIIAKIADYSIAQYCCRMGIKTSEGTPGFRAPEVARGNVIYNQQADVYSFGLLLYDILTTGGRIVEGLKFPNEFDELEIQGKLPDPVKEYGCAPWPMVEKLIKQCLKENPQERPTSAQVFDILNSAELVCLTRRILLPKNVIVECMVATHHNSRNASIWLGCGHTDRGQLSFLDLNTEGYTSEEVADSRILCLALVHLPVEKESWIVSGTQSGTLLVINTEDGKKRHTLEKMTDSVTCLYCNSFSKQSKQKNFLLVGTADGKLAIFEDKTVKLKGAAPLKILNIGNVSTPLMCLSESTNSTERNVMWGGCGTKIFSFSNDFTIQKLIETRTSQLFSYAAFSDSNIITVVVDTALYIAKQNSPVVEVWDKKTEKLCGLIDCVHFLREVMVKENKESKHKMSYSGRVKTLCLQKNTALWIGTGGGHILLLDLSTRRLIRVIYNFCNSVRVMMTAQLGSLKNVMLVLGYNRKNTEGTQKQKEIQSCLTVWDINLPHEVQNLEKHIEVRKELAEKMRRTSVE
Chain of Leucine-rich repeat serine/threonine-protein kinase 2 (Q5S007 whole entry): as the sequence (Q5S007 whole entry G2019S) above, with S2019G counted along it

`COc1cc(Nc2nc(C)cc(-c3cnn4nc(OC)ccc34)n2)cc(C(F)(F)F)c1` gave a % of control [1] of 100% and a % of control [2] of 100%.

Work on `COc1cc(N(C)c2ccnc3ccc(C(F)(F)F)cc23)cc(OC)c1OC` yielded a % binding [3] of 97%.

`Nc1cnc(N2CCc3cc(S(=O)(=O)Nc4c(F)cc(Cl)cc4F)cc(N4CCCC4=O)c32)nc1` [TP-020n] showed a % of control [4] of 100%.

For `COCC(=O)NC/C=C/c1ccc2ncnc(Nc3ccc(Oc4ccc(C)nc4)c(C)c3)c2c1` [CP-724714], the % of control [5] was 73%.

For `CN(C)C/C=C/C(=O)Nc1ccc(C(=O)N2CCCC(Nc3ncc(Cl)c(-c4c[nH]c5ccccc45)n3)C2)cc1` (stereo not drawn), the % of control [6] was 55%.

Work on `Cn1cc(-n2cnc3c(NCc4nc5cc(Cl)c(Cl)cc5[nH]4)nc(N4CCOCC4)nc32)cn1` yielded a % of control [7] of 14.5% and a % of inhibition [8] of 0.245%.
